Results taken from publication PMC5569483, “Screening and evolution of a novel protist xylose isomerase from the termite Reticulitermes speratus for efficient xylose fermentation in Saccharomyces cerevisiae” (Biotechnology for Biofuels, 2017).

System: T1, RsXI-C1
T1 construct: full-length ORF, codon-optimized gene, expressed in S. cerevisiae W600W (strain WR311), crude cell extract
Assay: coupled sorbitol dehydrogenase assay, NADH oxidation at […] nm, Lineweaver-Burk
Assay type: biochemical, uncultured symbiotic protist of Reticulitermes speratus
Conditions: crude cell extract; 100 mM Tris-HCl pH 7.5, 10 mM MgSO4, 0.15 mM NADH, 30 °C, 5–250 mM D-xylose

Compound: OC1OC[C@@H](O)[C@H](O)[C@H]1O (stereo partly shown) [xylose]
- Km: 10.5 ± 1.1 mM
